Laboratory results: the C3SDB collision cross section collection

Conditions: instrument: DT, single field, calibrated with Agilent tune mix (Agilent)

| Compound | collision cross section (N2) ([M+H]+) | collision cross section (N2) ([M-H]-) | other results |
| --- | --- | --- | --- |
| NC(CCCC(=O)O)C(=O)O (racemic) [DL-2-Aminoadipic acid] | 134.4 Å² | 127.69 Å² | – |
| O=C(O)C(CO)OP(=O)(O)O (racemic) [DL-2-Phosphoglycerate] | – | – | collision cross section (N2) ([M+Na]+): 141.8 Å² |
| CS(=O)CCC(N)C(=O)O (racemic) [DL-Methionine sulfoxide] | 133.1 Å² | – | – |
| Cn1c(=O)[nH]c2ncn(C)c2c1=O [1,7-Dimethylxanthine] | – | 133.24 Å² | – |
| Cn1cc(CCN)c2ccccc21 [1-Methyltryptamine] | – | – | collision cross section (N2) ([M+Na]+): 139 Å² |
| Cn1c(=O)[nH]c2[nH]c(=O)[nH]c2c1=O [1-Methyluric acid] | – | 129.18 Å² | – |
| O=C(O)c1ccccc1O[C@@H]1O[C@H](C(=O)O)[C@@H](O)[C@H](O)[C@H]1O [1-Salicylate glucuronide] | – | 157.84 Å² | collision cross section (N2) ([M+Na]+): 170.1 Å² |
| Nc1ncnc2c1ncn2[C@H]1C[C@H](O)[C@@H](COP(=O)(O)O)O1 [2'-Deoxyadenosine 5'-monophosphate] | 168.1 Å² | – | – |
| Nc1ccn([C@H]2C[C@H](O)[C@@H](COP(=O)(O)O)O2)c(=O)n1 [2'-Deoxycytidine 5'-monophosphate] | – | – | collision cross section (N2) ([M+Na]+): 164 Å² |
| O=C(O)C(COP(=O)(O)O)OP(=O)(O)O [2,3-Diphospho-D-glyceric acid] | – | – | collision cross section (N2) ([M+Na]+): 152.3 Å² |
| O=P(O)(O)OC[C@H]1O[C@@H](O)C[C@@H]1O [2-Deoxyribose 5-phosphate] | – | 132.47 Å² | – |
| CNc1nc(=O)c2ncn([C@@H]3O[C@H](CO)[C@@H](O)[C@H]3O)c2[nH]1 [2-Methylguanosine] | – | – | collision cross section (N2) ([M+Na-2H]-): 166.02 Å²; collision cross section (N2) ([M+Na]+): 178.4 Å² |
| O=C(O)CCCC(=O)C(=O)O [2-Oxoadipic acid] | – | – | collision cross section (N2) ([M+Na-2H]-): 129.65 Å² |
| N[C@@H](Cc1ccc(O)c(O)c1)C(=O)O [3,4-Dihydroxy-L-phenylalanine] | 148.7 Å² | 138.21 Å² | – |
| O=C(O)Cc1ccc(O)c(O)c1 [3,4-Dihydroxyphenylacetic acid] | – | – | collision cross section (N2) ([M-H2O-H]-): 125.7 Å² |
| NC(Cc1cc(I)c(Oc2ccc(O)cc2)c(I)c1)C(=O)O (stereo unspecified) [3,5-Diiodothyronine] | 198.2 Å² | 186.44 Å² | – |

| Compound | collision cross section (N2) ([M+H]+) | collision cross section (N2) ([M-H]-) | other results |
| --- | --- | --- | --- |
| CC(CC(=O)O)CC(=O)O [3-Methylglutaric acid] | – | 122.88 Å² | – |
| Cn1c(=O)[nH]c(=O)c2[nH]c(=O)[nH]c21 [3-Methyluric acid] | – | 128.86 Å² | – |
| O=C(O)[C@H](O)COP(=O)(O)O [3-Phospho-D-glycerate] | – | – | collision cross section (N2) ([M+Na]+): 139.4 Å² |
| C[C@]12CC[C@@H](O)C[C@H]1CC[C@@H]1[C@@H]2[C@@H](O)C[C@]2(C)[C@@H](C(=O)CO)CC[C@@H]12 [3alpha,11beta,21-Trihydroxy-5beta-pregnan-20-one] | – | 187.18 Å² | collision cross section (N2) ([M+H-H2O]+): 179.6 Å² |
| NC(N)=NCCCC(=O)O [4-Guanidinobutyric acid] | 129.7 Å² | – | – |
| O=C(O)c1ccc([O-])cc1 [4-Hydroxybenzoate] | – | 119.33 Å² | collision cross section (N2) ([M+H-H2O]+): 119 Å² |
| COc1ccc(CC(=O)O)cc1 [4-Methoxyphenylacetic acid] | 137.4 Å² | – | – |
| Nc1nc(=O)c2c([nH]1)NCC1CN(c3ccc(C(=O)NC(CCC(=O)O)C(=O)O)cc3)CN21 (stereo unspecified) [5,10-methylene-THF] | – | 192.06 Å² | – |
| N[C@@H](Cc1c[nH]c2ccc(O)cc12)C(=O)O [5-Hydroxy-L-tryptophan] | – | 148.86 Å² | collision cross section (N2) ([M+Na]+): 152.2 Å² |
| O=C(O)c1ccc(=O)[nH]c1 [6-Hydroxynicotinic acid] | 129.5 Å² | 118.52 Å² | – |
| O=C(O)[C@H](O)[C@@H](O)[C@H](O)[C@H](O)COP(=O)(O)O [6-Phospho-D-gluconate] | – | – | collision cross section (N2) ([M+Na]+): 157.3 Å² |
| C[C@H](O)[C@H](O)C1=Nc2c([nH]c(N)nc2=O)NC1 [7,8-Dihydrobiopterin] | 154.1 Å² | – | – |
| Cn1c(=O)[nH]c2[nH]c(=O)[nH]c(=O)c21 [7-Methyluric acid] | – | 129.35 Å² | – |
| CC1=C(/C=C/C(C)=C\C=C\C(C)=C\C=O)C(C)(C)CCC1 [9-cis-Retinal] | 170.1 Å² | – | – |
| CC1=C(/C=C/C(C)=C\C=C\C(C)=C\C(=O)O)C(C)(C)CCC1 [9-cis-Retinoic acid] | – | 200.01 Å² | collision cross section (N2) ([M+H-H2O]+): 169.6 Å² |
